Here are results for three molecules from article PMC7008598 (Science signaling, 2019).

A word on the Kd: it is the free concentration of one partner at which half of the binding sites on the other are occupied at equilibrium, for simple one-to-one binding. Usually IC50 stands for the concentration needed to halve the response being measured. What is called stoichiometry N is a count of units in the complex or per binding partner.

In data set [1] the test system is TNFR1-stimulated NF-κB activation. Description: LTα-induced NF-κB activation luciferase assay in HEK293 cells. It is filed as cell-based, human.
Another data set addresses T1, human TNFR1 ECD (Homo sapiens, UniProt P19438).
T1 sequence (P19438 30-211 limits assumed): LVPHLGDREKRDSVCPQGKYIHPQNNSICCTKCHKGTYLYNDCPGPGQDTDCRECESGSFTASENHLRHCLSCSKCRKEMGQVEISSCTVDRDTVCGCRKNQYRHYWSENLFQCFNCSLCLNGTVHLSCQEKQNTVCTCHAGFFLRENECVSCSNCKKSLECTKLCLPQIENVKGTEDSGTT
Description: SPR binding assay on immobilized TNFR1 ECD. A general note: Surface plasmon resonance follows binding to a sensor surface in real time, without labels.

In data set [2] the test system is basal NF-κB activation in TNFR1 KO HAP1 cells. Kind of data set: Basal NF-κB activation in TNFR1 KO HAP1 cells. Format: cell-based, human.
Data set [3] relates to TRADD-induced NF-κB activation. Kind of data set: TRADD-induced NF-κB activation in HEK293 cells. It is filed as cell-based, human. Conditions: HEK293, TRADD overexpression, 0.1 to 200 μM.
The target of the next data set is T2, TNFR1 ECD dimer (Homo sapiens, UniProt P19438).
T2 sequence (P19438 30-211 limits assumed): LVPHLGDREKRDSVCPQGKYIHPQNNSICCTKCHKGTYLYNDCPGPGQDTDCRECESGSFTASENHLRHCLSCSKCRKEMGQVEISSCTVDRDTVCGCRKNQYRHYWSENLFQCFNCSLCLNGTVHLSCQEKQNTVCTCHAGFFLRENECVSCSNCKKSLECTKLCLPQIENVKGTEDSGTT
Kind of data set: Native gel characterization of soluble TNFR1 ECD dimer. Conditions: compounds 200 μM. It is filed as biochemical.

Data set [4] relates to TNFR1-stimulated NF-κB activation. Particulars: read-out: absolute IC50, inhibition of ligand-induced NF-κB activation; cited from earlier work.
In a further data set the target is T3, TNFR1 PLAD dimer (Homo sapiens, UniProt P19438).
T3 sequence (P19438 30-82): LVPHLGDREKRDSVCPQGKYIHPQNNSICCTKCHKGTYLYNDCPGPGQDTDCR
Description: Native gel characterization of soluble TNFR1 PLAD dimer. Conditions: compounds 200 μM.

The data set “native gel or EMSA” concerns the molecule itself. Kind of data set: native gel or EMSA. A general note: A gel shift assay detects complexes by their altered migration in electrophoresis.
Data set [5] concerns the target T4, soluble FLAG-tagged lymphotoxin-α (LTα), P01374.
T4 chain: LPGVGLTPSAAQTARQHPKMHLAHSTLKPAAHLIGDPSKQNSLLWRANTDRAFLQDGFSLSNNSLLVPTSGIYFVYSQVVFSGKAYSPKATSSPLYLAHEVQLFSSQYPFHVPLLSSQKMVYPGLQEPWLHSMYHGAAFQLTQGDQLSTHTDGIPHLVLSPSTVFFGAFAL
Description: native gel or EMSA. Particulars: remark: other sources report otherwise.

In data set [6] the target is T5, recombinant human TNFR1 extracellular domain (human, UniProt P19438 30-211).
T5 sequence (looked up): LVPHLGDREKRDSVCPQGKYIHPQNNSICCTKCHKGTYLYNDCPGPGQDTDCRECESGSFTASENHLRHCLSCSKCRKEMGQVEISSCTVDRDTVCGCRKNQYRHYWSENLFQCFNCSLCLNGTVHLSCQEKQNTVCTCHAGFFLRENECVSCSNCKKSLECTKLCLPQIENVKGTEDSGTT
Kind of data set: SPR.

Consider `COc1cc(C(=O)NS(=O)(=O)c2ccccc2C)ccc1Cc1cn(C)c2ccc(NC(=O)OC3CCCC3)cc12` [zafirlukast], for which the “extent of inhibition of NF-κB activation” value in [1] (HEK293, LTα, maximal inhibition) was determined as 55%. Also, the “IC50 for inhibition of NF-κB in the presence of H398” value in [1] (presence of H398 antibody) was “unchanged”. On human TNFR1 ECD, this molecule displayed a Kd of 86 µM. Further, the “noncompetitive binding of LTα and compound to TNFR1 ECD” value at human TNFR1 ECD (SPR, LTα 50 nM, compound 200 μM) is listed as “equal to the sum of the individual response”. Also, at human TNFR1 ECD (SPR, compound at saturating 200 μM), the “LTα binding affinity to TNFR1 ECD in the presence of compound” value was “essentially unchanged”. The “competition with H398 for binding TNFR1” value on human TNFR1 ECD (SPR, compounds 200 μM, H398 at 1.0 nM) is “did not compete with H398”. In data set [2], the “effect on basal level of NF-κB activation in TNFR1 KO cells (specificity)” value was “almost no effect on basal activity”. For the same molecule, in [3], the “effect on TRADD-induced NF-κB activation” value is “little effect”. For the same molecule, the “disruption of TNFR1 ECD dimer” value on TNFR1 ECD dimer was “disrupted”. The half-inhibitory concentration (IC50) in data set [4] was 50 µM. In addition, the “disruption of soluble PLAD dimers” value at TNFR1 PLAD dimer is on record as “disrupted”.

B1: FLAG-tagged TNFR1 PLAD (residues 30 to 82) (domain or fragment, UniProt P19438 30-82, looked up)
chain: LVPHLGDREKRDSVCPQGKYIHPQNNSICCTKCHKGTYLYNDCPGPGQDTDCR
B1: the “stoichiometry N” value in “native gel or EMSA” worked out at 2.

B2: soluble FLAG-tagged lymphotoxin-α (LTα) (ligand, UniProt P01374 35-205, looked up)
chain: LPGVGLTPSAAQTARQHPKMHLAHSTLKPAAHLIGDPSKQNSLLWRANTDRAFLQDGFSLSNNSLLVPTSGIYFVYSQVVFSGKAYSPKATSSPLYLAHEVQLFSSQYPFHVPLLSSQKMVYPGLQEPWLHSMYHGAAFQLTQGDQLSTHTDGIPHLVLSPSTVFFGAFAL
In data set [5], B2 came in with a stoichiometry N of 3. The equilibrium dissociation constant (Kd) in data set [6] was determined as 0.037 µM.
